Here are results for 30 compounds from patent US20150141381A1, “TETRACYCLINE COMPOUNDS HAVING TARGET THERAPEUTIC ACTIVITIES” (Paratek Pharmaceuticals, Inc., priority 2001, published 2015).

For experiment [1], the system named is S. aureus RN450. As to the kind of experiment: In Vitro Anti-Bacterial Activity Assay (MIC), gram positive. The following applies: for MIC: Staphylococcus aureus, RN450, 18 h. The class given is cell-based.
In experiment [2] the test system is E. coli mL308 225. In words: In Vitro Anti-Bacterial Activity Assay (MIC), gram negative. In kind it is cell-based. The following applies: for MIC: Escherichia coli, ML308225, 18 h.
[3] abbreviates: MIC class, Table 3 (Continued), read-out: Gram+ activity.
Setting [4] is: MIC class, Table 3 (Continued), read-out: Gram− activity.
Setting [5] is: MIC class, Table 3, read-out: Antibiotic Activity Gram +.
Where [6] appears, read: MIC class, Table 3, read-out: Antibiotic Activity Gram −.
Setting [7] is: gram positive bacteria, read-out: Antibiotic Activity Gram + (MIC).
Where [8] appears, read: gram negative bacteria, read-out: Antibiotic Activity Gram − (MIC).

Read-outs that look alike come from different tables or passages of the source.

Regarding `CN(C)c1cc(CNCCC(F)(F)F)c(O)c2c1C[C@H]1C[C@H]3[C@H](N(C)C)C(O)=C(C(N)=O)C(=O)[C@@]3(O)C(O)=C1C2=O` [drawing 3690], the “Antibiotic Activity Gram + (MIC)” value in experiment [1] (gram positive bacteria) is listed as “** (compounds with MIC less than or equal to 4 μg/ml are indicated with **)”. The “Antibiotic Activity Gram − (MIC)” value in experiment [2] (gram negative bacteria) is “** (compounds with MIC less than or equal to 4 μg/ml are indicated with **)”.
In the case of `Cc1ccc(CCc2ccc(O)c3c2C[C@H]2C[C@H]4[C@H](N(C)C)C(O)=C(C(N)=O)C(=O)[C@@]4(O)C(O)=C2C3=O)cc1`, the MIC in experiment [1] (setting [3]) and in experiment [2] (setting [4]) was less than 4 µg/mL in each case.
Consider `CN(C)[C@@H]1C(O)=C(C(N)=O)C(=O)[C@@]2(O)C(O)=C3C(=O)c4c(O)ccc(-c5ccc(CN6CCCC6)o5)c4C[C@H]3C[C@@H]12` [GY], for which the MIC in experiment [1] (setting [5]) and in experiment [2] (setting [6]) was less than 4 µg/mL each time.
With `CN(C)[C@@H]1C(O)=C(C(N)=O)C(=O)[C@@]2(O)C(O)=C3C(=O)c4c(O)c(C(C)(C)C)cc(-c5ccc6c(c5)OCO6)c4C[C@H]3C[C@@H]12`, the MIC in experiment [1] (setting [7]) and in experiment [2] (setting [8]) was more than 4 µg/mL in each case.
With `CCCCOc1cccc2c1C(=O)C1=C(O)[C@]3(O)C(=O)C(C(N)=O)=C(O)[C@@H](N(C)C)[C@@H]3[C@@H](O)[C@@H]1[C@H]2C`, the MIC in experiment [1] (setting [7]) and in experiment [2] (setting [8]) was more than 4 µg/mL in each case.
For the compound `COc1ccc(CNCCC#N)cc1-c1ccc(O)c2c1C[C@H]1C[C@H]3[C@H](N(C)C)C(O)=C(C(N)=O)C(=O)[C@@]3(O)C(O)=C1C2=O`, the MIC is less than 4 µg/mL in experiment [1] (setting [7]) and more than 4 µg/mL in experiment [2] (setting [8]).
For `CN(Cc1cc(N(C)C)c2c(c1O)C(=O)C1=C(O)[C@]3(O)C(=O)C(C(N)=O)=C(O)[C@@H](N(C)C)[C@@H]3C[C@@H]1C2)CC(C)(C)C`, the MIC in experiment [1] (setting [7]) and in experiment [2] (setting [8]) was less than 4 µg/mL in each case.
Consider `CN(C)c1cc(CCC2(O)CCCC2)c(O)c2c1C[C@H]1C[C@H]3[C@H](N(C)C)C(O)=C(C(N)=O)C(=O)[C@@]3(O)C(O)=C1C2=O`, for which the MIC in experiment [1] (setting [7]) and in experiment [2] (setting [8]) was more than 4 µg/mL each time.
On to `CN(C)[C@@H]1C(O)=C(C(N)=O)C(=O)[C@@]2(O)C(O)=C3C(=O)c4c(O)ccc(-c5ccccc5Cl)c4C[C@H]3C[C@@H]12`, for which the MIC in experiment [1] (setting [3]) and in experiment [2] (setting [4]) was less than 4 µg/mL in each case.
`CN(C)c1cc(CO)c(O)c2c1C[C@H]1C[C@H]3[C@H](N(C)C)C(O)=C(C(N)=O)C(=O)[C@@]3(O)C(O)=C1C2=O`: the MIC in experiment [1] (setting [7]) is less than 4 µg/mL; in experiment [2] (setting [8]), more than 4 µg/mL.
In the case of `COc1ccc(-c2ccc(O)c3c2C[C@H]2C[C@H]4[C@H](N(C)C)C(O)=C(C(N)=O)C(=O)[C@@]4(O)C(O)=C2C3=O)cc1CN` [HI], the MIC in experiment [1] (setting [5]) is less than 4 µg/mL; in experiment [2] (setting [6]), more than 4 µg/mL.
Regarding `Cc1noc(C)c1S(=O)(=O)Nc1ccc2c(c1O)C(=O)C1=C(O)[C@]3(O)C(=O)C(C(N)=O)=C(O)[C@@H](N(C)C)[C@@H]3C[C@@H]1C2` [IP], the values for the MIC in experiment [1] (setting [5]) and in experiment [2] (setting [6]) were less than 4 µg/mL and more than 4 µg/mL, respectively.
Regarding `CC1CN(Cc2cc(N(C)C)c3c(c2O)C(=O)C2=C(O)[C@]4(O)C(=O)C(C(N)=O)=C(O)[C@@H](N(C)C)[C@@H]4C[C@@H]2C3)CC(C)O1` (stereo partly drawn), the MIC in experiment [1] (setting [7]) and in experiment [2] (setting [8]) was less than 4 µg/mL each time.
Consider `Cc1ccc(-c2ccc(O)c3c2C[C@H]2C[C@H]4[C@H](N(C)C)C(O)=C(C(N)=O)C(=O)[C@@]4(O)C(O)=C2C3=O)cc1N`, for which the MIC in experiment [1] (setting [7]) and in experiment [2] (setting [8]) was less than 4 µg/mL in each case.
Consider `COc1ccc(OC(=O)Nc2ccc3c(c2O)C(=O)C2=C(O)[C@]4(O)C(=O)C(C(N)=O)=C(O)[C@@H](N(C)C)[C@@H]4C[C@@H]2C3)cc1` [AS], for which the MIC in experiment [1] (read-out: Antibiotic Activity Gram +) is less than 4 µg/mL; in experiment [2] (read-out: Antibiotic Activity Gram −), more than 4 µg/mL.
For `CCOC(=O)COC1=C(C(N)=O)C(=O)[C@@]2(O)C(O)=C3C(=O)c4c(O)cccc4C[C@H]3C[C@H]2[C@@H]1N(C)C` [OR], the MIC in experiment [1] (setting [5]) and in experiment [2] (setting [6]) was more than 4 µg/mL throughout.
As to `CC(C)S(=O)(=O)NCC#Cc1cc(N(C)C)c2c(c1O)C(=O)C1=C(O)[C@]3(O)C(=O)C(C(N)=O)=C(O)[C@@H](N(C)C)[C@@H]3C[C@@H]1C2` [DI], the MIC in experiment [1] (setting [5]) and in experiment [2] (setting [6]) was more than 4 µg/mL each time.
In the case of `Cc1noc(C)c1S(=O)(=O)NCc1cc(N(C)C)c2c(c1O)C(=O)C1=C(O)[C@]3(O)C(=O)C(C(N)=O)=C(O)[C@@H](N(C)C)[C@@H]3C[C@@H]1C2`, the MIC in experiment [1] (setting [7]) was less than 4 µg/mL; in experiment [2] (setting [8]), more than 4 µg/mL.
Regarding `CN(C)c1cc(-c2ccccn2)c2c(c1O)C(=O)C1=C(O)[C@]3(O)C(=O)C(C(N)=O)=C(O)[C@@H](N(C)C)[C@@H]3C[C@@H]1C2`, the MIC is less than 4 µg/mL in experiment [1] (setting [7]) and more than 4 µg/mL in experiment [2] (setting [8]).
As for `CN(C)c1cc(CN2CCCCC2)c(O)c2c1C[C@H]1C[C@H]3C(N(C)C)C(O)=C(C(N)=O)C(=O)[C@@]3(O)C(O)=C1C2=O` (stereo partly drawn), the MIC in experiment [1] (setting [3]) was less than 4 µg/mL; in experiment [2] (setting [4]) it was more than 4 µg/mL.
On to `CN(C)[C@@H]1C(O)=C(C(N)=O)C(=O)[C@@]2(O)C(O)=C3C(=O)c4c(O)ccc(C#CCCC#Cc5ccc(O)c6c5C[C@H]5C[C@H]7[C@H](N(C)C)C(O)=C(C(N)=O)C(=O)[C@@]7(O)C(O)=C5C6=O)c4C[C@H]3C[C@@H]12` [FM], for which the MIC in experiment [1] (setting [5]) and in experiment [2] (setting [6]) was more than 4 µg/mL each time.
Regarding `CC(C)NCc1ccc(-c2ccc(O)c3c2C[C@H]2C[C@H]4C(N(C)C)C(O)=C(C(N)=O)C(=O)[C@@]4(O)C(O)=C2C3=O)cc1` (stereo partly drawn) [GL], the MIC in experiment [1] (setting [5]) and in experiment [2] (setting [6]) was less than 4 µg/mL throughout.
For `CCCNCc1ccc(OC)c(-c2ccc(O)c3c2C[C@H]2C[C@H]4C(N(C)C)C(O)=C(C(N)=O)C(=O)[C@@]4(O)C(O)=C2C3=O)c1` (stereo partly drawn) [EF], the MIC in experiment [1] (setting [5]) and in experiment [2] (setting [6]) was less than 4 µg/mL throughout.
Consider `CCOC(=O)c1cccc(-c2ccc(O)c3c2C[C@H]2C[C@H]4[C@H](N(C)C)C(O)=C(C(N)=O)C(=O)[C@@]4(O)C(O)=C2C3=O)c1`, for which the MIC in experiment [1] (setting [3]) and in experiment [2] (setting [4]) was less than 4 µg/mL each time.
In the case of `CC1c2ccc(C3(C)CCCC3)c(O)c2C(=O)C2=C(O)[C@]3(O)C(=O)C(C(N)=O)=C(O)[C@@H](N(C)C)[C@@H]3[C@@H](O)[C@@H]21` (stereo partly drawn), the MIC in experiment [1] (setting [3]) and in experiment [2] (setting [4]) was less than 4 µg/mL in each case.
`CN(C)[C@@H]1C(O)=C(C(N)=O)C(=O)[C@@]2(O)C(O)=C3C(=O)c4c(O)ccc(CN5CCCC5)c4C[C@H]3C[C@@H]12`: the MIC in experiment [1] (setting [7]) and in experiment [2] (setting [8]) was less than 4 µg/mL in each case.
In the case of `COc1cccc(C/C=C\c2ccc(O)c3c2C[C@H]2C[C@H]4[C@H](N(C)C)C(O)=C(C(N)=O)C(=O)[C@@]4(O)C(O)=C2C3=O)c1O`, the MIC in experiment [1] (setting [7]) and in experiment [2] (setting [8]) was less than 4 µg/mL each time.
As to `CCOc1ccc(-c2ccc(O)c3c2C[C@H]2C[C@H]4[C@H](N(C)C)C(O)=C(C(N)=O)C(=O)[C@@]4(O)C(O)=C2C3=O)cc1CN` [GJ], the MIC in experiment [1] (setting [5]) and in experiment [2] (setting [6]) was less than 4 µg/mL throughout.
In the case of `COCc1ccc(O)c2c1C[C@H]1C[C@H]3[C@H](N(C)C)C(O)=C(C(N)=O)C(=O)[C@@]3(O)C(O)=C1C2=O`, the MIC in experiment [1] (setting [7]) and in experiment [2] (setting [8]) was less than 4 µg/mL throughout.
Regarding `CCC(CC)c1ccc(CCc2ccc(O)c3c2C[C@H]2C[C@H]4[C@H](N(C)C)C(O)=C(C(N)=O)C(=O)[C@@]4(O)C(O)=C2C3=O)cc1`, the MIC in experiment [1] (setting [3]) and in experiment [2] (setting [4]) was less than 4 µg/mL throughout.
